Laboratory results: patent US10583119B2, “Compounds, compositions and methods for making the same” (Signum Biosciences, Inc., priority 2008, dated 2020)
Like-named read-outs stand apart in the source and are kept apart here.

Tests used:
PP2A [1] = target: T1, PP2A (Homo sapiens, UniProt P67775); assay: Phosphatase activity of PP2A using pNPP as substrate; assay type: biochemical; details: un-methylated PP2A, non-protein substrate pNPP, absence of ME and MT
T1 construct: made in house
Description: PP2A (10-200 nM) and pNPP (5-10 mM, Sigma) were mixed into 96-well plate (Fisher Scientific Inc.) in 50 μL of the buffer required. Reactions were performed at room temperature, and fully stopped by adding equal volume of 0.1 M EDTA. Production of p-nitrophenol […] was quantified by absorbance of reaction mixtures at 405 nm using the VMax® microplate reader (Molecular Devices).

PP2A [2] = target: T1, PP2A; assay: Phosphatase activity of PP2A using phosphorylase a as substrate; assay type: biochemical; details: un-methylated PP2A, protein substrate phosphorylase a, absence of ME and MT
Description: After the reaction, proteins were precipitated by 50% (NH4)2SO4 (final concentration) twice, and collected by centrifugation. The pellet was re-dissolved and dialyzed in a buffer containing 50 mM Tris-HCl (pH6.9) and ImM DTT for 2×2 L at 4° C. overnight. Phosphorylase a (phospho-phosphorylase b) crystallized during the dialysis. The dialysate was centrifuged 14,000 r.p.m at 4° C. for 30 minutes, the supernatant was removed and purified ^32P-labelled phosphorylase a was re-dissolved in +50% glycerol, and stored at −20° C.
To measure PP2A's phosphatase activity, PP2A (5-20 nM) was incubated with phosphorylase a (5-10 μM) at 37° C. 10% TCA (final concentration) and was added to the reaction to precipitate proteins. Supernatant that contains free ^32P-phosphate group was added into scintillation counting solution (Ecoscint, National Diagnostics), and counted by scintillation counter (LS 6000SE, Beckman).

[3] = target: T2, protein phosphatase specific protein methylesterase (MEase) (Homo sapiens, UniProt Q9Y570); assay: PP2A demethylation with [3H]-SAM and purified proteins (methylesterase activity); assay type: biochemical
T2 construct: made in house
T2 sequence (Q9Y570 1-386): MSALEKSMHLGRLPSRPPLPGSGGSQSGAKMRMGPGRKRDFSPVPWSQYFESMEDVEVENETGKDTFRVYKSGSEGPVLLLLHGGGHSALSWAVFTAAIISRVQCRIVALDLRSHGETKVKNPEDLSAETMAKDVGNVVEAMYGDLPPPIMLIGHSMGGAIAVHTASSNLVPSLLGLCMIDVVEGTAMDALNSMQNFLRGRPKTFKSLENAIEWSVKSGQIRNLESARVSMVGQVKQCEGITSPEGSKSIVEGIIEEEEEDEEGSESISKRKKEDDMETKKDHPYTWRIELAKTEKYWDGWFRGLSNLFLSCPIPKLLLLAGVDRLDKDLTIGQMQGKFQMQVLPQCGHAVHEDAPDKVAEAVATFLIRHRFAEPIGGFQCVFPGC
Description: PP2A (methylated and unmethylated) were eluted with 1.6 mL of Buffer A containing 350 mM NaCl. Fractions (0.2 mL each) were collected and the radioactivity in each fraction was measured using the scintillation counter (LS 6000SE, Beckman). Fractions with highest radioactivity were containing purified methylated PP2A were pooled with a total volume of 0.6 mL-0.8 mL. Purified methylated PP2A (50 nM-100 nM) was incubated with MEase (5 nM-20 nM) in 20 μl-50 μl reaction at room temperature for 30 minutes. The reaction was terminated by adding TCA (2 μl-6 μl) to a final concentration of 10%. Released [^3H]-methanol in supernatants was counted with scintillation counter (LS 6000SE, Beckman).

[4] = target: T3, protein phosphatase 2A specific methyltransferase (MTase) (Homo sapiens, UniProt Q9UIC8); assay: PP2A methylation in 96-well plate format (methyltransferase activity); assay type: biochemical; details: purified PP2A, MTase and [3H]-SAM; read-out: MT (IC50)
T3 construct: His; made in house
Description: Purified PP2A, MTase and [^3H]-SAM, were incubated in reaction buffer at 37° C. At the end of the reaction, mixture was added onto the membranes of 96-well filter plate (Multiscreen™, Millipore). The membranes were then pre-wetted with 70% ethanol (50 μL/well) and then subsequently washed with water (2×200 μL/well). The reaction in each well was terminated and the proteins (5 μL-20 μL) were precipitated by adding 25% ice-cold TCA. The plate was kept on ice for 30 minutes to ensure completion of protein precipitation. Excess of the free SAM was then removed by washing with 5% cold TCA ([…]) and 70% cold ethanol (2×100 μL/well). Membranes were air-dried, radioactivity in each well was counted by TopCount^NXT scintillation counter (Packard) with 25 μL/well of Microsinct™ 20 (PerkinElmer).

[5] = tested on: MPTP Mouse Model of Parkinson's Disease; assay: MPTP-induced neurotoxicity in MPTP mouse model of Parkinson's disease (striatal tyrosine hydroxylase ELISA); assay type: in vivo, C57BL/6J mice; details: mice on control diets, relative to saline-injected mice
Text: MPTP (1-methyl-4-phenyl-1,2,3,6-tetrahydropyridine) is routinely used as a chemical agent that induces Parkinson's disease-like neurodegeneration in cellular and animal models. Both Parkinson's Disease and MPTP-induced neurotoxicity are associated with a number of different biomarkers including reduction of tyrosine hydroxylase levels and activity. Tyrosine hydroxylase is a key enzyme in the dopamine biosynthesis pathway as it is involved in the conversion of tyrosine to […]. Tyrosine hydroxylase activity is regulated by its phosphorylation status and PP2A is known to be involved in this regulation.
C57BL/6J mice, aged 2-3 months were fed ad libitum, either standard rodent chow (Control), or rodent chow formulated with 0.1 g Compound I-63, or 0.001 g Compound I-63 per 100 g chow (0.1% and 0.001% Compound I-63, respectively); water was changed weekly. Mice were housed at 23° C., on a 12 hour light and dark cycle, with 6 mice per cage. After 2 weeks, 8-12 mice each from the Control, 0.1% Compound 1-63 and 0.001% Compound I-63 groups were injected with either saline, or 10 mg/kg MPTP i.e., four times, every 2 hours, on the same day. Mice were then maintained on their respective feeds for another week, at which point they were sacrificed by cervical dislocation and brains dissected for biochemical analyses.
Striatal tyrosine hydroxylase (TH) content was measured by ELISA as follows. Ninety-six well microliter plates (Thermo Labsystems) were incubated overnight at 4° C. with monoclonal anti-TH antibody (1:500; Calbiochem) in 8 mM sodium phosphate, 2 mM potassium phosphate, and 0.14 M sodium chloride, pH 7.4 (PBS). Wells were washed four times with PBS and then blocked for 1 hour using 5% (w/v) Carnation (Nestle) nonfat dry milk in PBS. Striatal tissue samples were homogenized by sonication in PBS-0.5% Triton X-100 (PBST) with 0.25% (w/v) SDS. […] The reaction product was measured fluorometrically within the linear range of detection (excitation:emission ratio of 530:580 nm). […] Data were expressed as percent TH levels in MPTP-treated mice relative to saline-injected mice. […]

[6] = purified methylated PP2A and MEase, read-out: ME (IC50)

T3 sequence (Q9UIC8 whole entry): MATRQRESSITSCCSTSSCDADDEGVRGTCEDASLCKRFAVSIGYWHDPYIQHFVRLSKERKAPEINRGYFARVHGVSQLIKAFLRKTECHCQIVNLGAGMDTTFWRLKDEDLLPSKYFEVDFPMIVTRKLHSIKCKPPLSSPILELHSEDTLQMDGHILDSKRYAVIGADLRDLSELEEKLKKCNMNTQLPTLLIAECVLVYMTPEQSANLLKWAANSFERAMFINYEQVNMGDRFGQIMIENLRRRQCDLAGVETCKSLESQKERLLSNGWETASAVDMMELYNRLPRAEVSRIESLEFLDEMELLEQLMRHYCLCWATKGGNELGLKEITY
T1 sequence (P67775 whole entry): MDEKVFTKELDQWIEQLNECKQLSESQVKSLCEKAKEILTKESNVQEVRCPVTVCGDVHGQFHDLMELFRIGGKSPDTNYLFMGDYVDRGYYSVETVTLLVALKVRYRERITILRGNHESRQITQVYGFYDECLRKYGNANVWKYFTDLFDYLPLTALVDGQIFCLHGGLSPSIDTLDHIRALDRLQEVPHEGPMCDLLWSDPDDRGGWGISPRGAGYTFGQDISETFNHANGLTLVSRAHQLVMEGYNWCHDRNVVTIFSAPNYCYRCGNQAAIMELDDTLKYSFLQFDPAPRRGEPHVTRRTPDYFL
T1 sequence (P30153 whole entry partner): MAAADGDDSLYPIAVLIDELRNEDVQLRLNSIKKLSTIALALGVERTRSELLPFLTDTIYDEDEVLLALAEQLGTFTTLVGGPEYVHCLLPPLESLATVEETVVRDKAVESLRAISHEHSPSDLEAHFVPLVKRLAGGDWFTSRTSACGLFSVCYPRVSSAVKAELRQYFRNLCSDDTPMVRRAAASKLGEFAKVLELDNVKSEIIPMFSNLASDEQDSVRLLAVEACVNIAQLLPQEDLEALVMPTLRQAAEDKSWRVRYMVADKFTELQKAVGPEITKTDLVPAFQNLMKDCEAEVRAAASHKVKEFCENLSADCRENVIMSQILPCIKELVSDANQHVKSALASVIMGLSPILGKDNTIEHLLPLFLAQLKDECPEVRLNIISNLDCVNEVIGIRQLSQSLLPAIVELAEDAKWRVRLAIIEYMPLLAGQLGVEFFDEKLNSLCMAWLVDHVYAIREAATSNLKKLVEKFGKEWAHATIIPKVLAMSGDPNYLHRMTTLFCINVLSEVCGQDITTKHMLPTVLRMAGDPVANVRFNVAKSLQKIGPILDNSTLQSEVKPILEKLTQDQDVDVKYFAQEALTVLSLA

Structure (SMILES)	IC50 (PP2A [1]) [µM]	IC50 (PP2A [2]) [µM]	IC50 [3, 6] [µM]	IC50 [4] [µM]	IC50 [3] [µM]	reduction of tyrosine hydroxylase levels [5] [%]
CCCCCCCCCCCCCCCCCCCC(=O)NCCc1c[nH]c2ccc(C)cc12 [Compound I-36, N-[2-(5-methyl-1H-indol-3-yl)ethyl]icosanamide]	10 to 100	> 100	10 to 100	< 10	–	–
CCCCCCCCCCCCCCCCCCCC(=O)N(C)CCc1c[nH]c2ccccc12 [Compound I-38, N-[2-(1H-indol-3-yl)ethyl]-N-methylicosanamide]	> 100	–	–	> 100	> 100	–
CCCCCCCCCCCCCCCCCCNC(=O)Cc1c[nH]c2ccc(O)cc12 [Compound I-39, 2-(5-hydroxy-1H-indol-3-yl)-N-octadecylacetamide]	10 to 100	10 to 100	< 10	10 to 100	–	–
CCCCCCCCCCCCCCCCCCCC(=O)NCCc1c[nH]c2ccccc12 [Compound I-64, N-(2-(1H-indol-3-yl)ethyl) icosanamide]	> 100	10 to 100	< 10	< 10	–	–
CCCCCCCCCCCCCCCCCC(=O)NCCc1c[nH]c2ccccc12 [Compound I-65, N-(2-(1H-indol-3-yl)ethyl)stearamide]	> 100	10 to 100	< 10	< 10	–	–
CCCCCCCCCCCCCCCCCC(=O)NCCc1c[nH]c2ccc(O)cc12 [Compound I-66, N-(2-(5-hydroxy-1H-indol-3-yl)ethyl)stearamide]	10 to 100	> 100	< 10	< 10	–	–
CCCCCCCCCCCCCCCCCCC(=O)NCCc1c[nH]c2ccc(O)cc12 [Compound I-67, N-(2-(5-hydroxy-1H-indol-3-yl)ethyl)nonadecanamide]	10 to 100	> 100	> 100	–	–	–
CCCCCCCCCCCCCCCC(=O)NCCc1c[nH]c2ccc(O)cc12 [Compound I-76, N-(2-(5-hydroxy-1H-indol-3-yl)emyl)palmitamide]	> 100	–	> 100	> 100	–	–
CCCCCCCCCC(=O)NCCc1c[nH]c2ccc(O)cc12 [Compound I-77, N-(2-(5-hydroxy-1H-indol-3-yl)ethyl)decanamide]	> 100	–	> 100	> 100	–	–
CCCCCCCCCCCCCCCCNC(=O)NC(Cc1c[nH]c2ccc(O)cc12)C(=O)O (centres unmarked) [Compound I-78, 2-(3-hexadecylureido)-3-(5-hydroxy-1H-indol-3-yl)propanoic acid]	> 100	–	< 10	< 10	–	–
CCCCCCCCCCCCCCCCCCNC(=O)NC(Cc1c[nH]c2ccc(O)cc12)C(=O)O (centres unmarked) [Compound I-79, 3-(5-hydroxy-1H-indol-3-yl)-2-(3-octadecylureido)propanoic acid]	> 100	–	10 to 100	< 10	–	–
CCCCCCCCCCCCCCCCNC(=O)C(Cc1c[nH]c2ccccc12)NC(=O)OC(C)(C)C (centres unmarked) [Compound I-80, tert-butyl 1-(hexadecylamino)-3-(1H-indol-3-yl)-1-oxpopran-2-ylcarbamate]	10 to 100	–	< 10	< 10	–	–
CN1CC=C(c2ccccc2)CC1 [MPTP, 1-methyl-4-phenyl-1,2,3,6-tetrahydropyridine, reference compound]	–	–	–	–	–	60

Now from value to compound, other results behind:

IC50 (PP2A [1]) [µM]	IC50 (PP2A [2]) [µM]	IC50 [3, 6] [µM]	IC50 [4] [µM]	Structure (SMILES)	IC50 [3] [µM]	reduction of tyrosine hydroxylase levels [5] [%]
< 10	> 100	10 to 100	10 to 100	CCCCCCC(O)CCCCCCCCCCC(=O)NCCc1c[nH]c2ccc(O)cc12 (centres unmarked) [Compound I-29, 12-hydroxy-N-[2-(5-hydroxy-1H-indol-3-yl)ethyl] octadecanamide]	–	–
10 to 100	10 to 100	< 10	10 to 100	CCCCCCCCCCCCCCCCNC(=O)NCCc1c[nH]c2ccc(O)cc12 [Compound I-30, 3-hexadecyl-1-[2-(5-hydroxy-1H-indol-3-yl)ethyl]urea]	–	–
10 to 100	10 to 100	< 10	10 to 100	CCCCCCCCCCCCCCCCCCNC(=O)NCCc1c[nH]c2ccc(O)cc12 [Compound I-31, 1-[2-(5-hydroxy-1H-indol-3-yl)ethyl]-3-octadecylurea]	–	–
10 to 100	10 to 100	< 10	< 10	CCCCCCCCCCCCCCCCCCCC(=O)NCCc1c[nH]c2ccc(OC(=O)CCC(=O)O)cc12 [Compound I-32, 4-{[3-(2-icosanamidoethyl)-1H-indol-5-yl]oxy}-4-oxobutanoic acid]	–	–
10 to 100	–	< 10	< 10	CCCCCCCCCCCCCCCCCCCC(=O)NCCc1c[nH]c2ccc(OC(C)=O)cc12 [Compound I-33, 3-(2-icosanamidoethyl)-1H-indol-5-yl acetate]	–	–
10 to 100	> 100	< 10	< 10	CCCCCCCCCCCCCCCCCCCC(=O)NCCc1c[nH]c2ccc(F)cc12 [Compound I-35, N-[2-(5-fluoro-1H-indol-3-yl)ethyl]icosanamide]	–	–
